In general, EC50 refers to the midpoint of the concentration-response curve. In general, AC50 refers to the concentration at which the activity in the assay is half-maximal.

From ChEMBL document CHEMBL1201862, “PubChem BioAssay data set” (2004) come the findings set out here.

In data set [1] the target is T1, Heat shock factor protein 1 (Mus musculus, UniProt P38532).
T1 sequence (P38532 whole entry): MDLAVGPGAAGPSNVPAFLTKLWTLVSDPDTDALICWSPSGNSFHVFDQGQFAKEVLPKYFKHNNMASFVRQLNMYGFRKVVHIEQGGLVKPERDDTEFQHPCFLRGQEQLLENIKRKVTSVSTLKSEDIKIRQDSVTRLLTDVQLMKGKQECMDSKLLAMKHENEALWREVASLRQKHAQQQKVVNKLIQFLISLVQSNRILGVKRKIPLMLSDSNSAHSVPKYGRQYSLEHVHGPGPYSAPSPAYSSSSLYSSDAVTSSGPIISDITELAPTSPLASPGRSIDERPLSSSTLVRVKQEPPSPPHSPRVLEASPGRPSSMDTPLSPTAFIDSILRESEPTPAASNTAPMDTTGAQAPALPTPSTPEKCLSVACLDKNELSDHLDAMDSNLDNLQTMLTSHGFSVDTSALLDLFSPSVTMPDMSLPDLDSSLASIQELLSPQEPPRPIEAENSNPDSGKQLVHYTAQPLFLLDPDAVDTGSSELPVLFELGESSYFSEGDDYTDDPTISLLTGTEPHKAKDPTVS
Briefly: inhibition of MG132-induced HSE-luciferase signal, confirmation, cell-based, NIH3T3, luminescence, dose retest (AID 2382).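 Further: NIH3T3 fibroblasts with HSF1-driven luciferase reporter stressed by proteasome inhibitor MG132; luminescence from HSF1-driven luciferase expression after 8 hours of MG132 stress.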 The format is functional.

The target of data set [2] is T2, Replicative DNA helicase DnaB (Mycobacterium tuberculosis, UniProt P9WMR3).
T2 sequence (P9WMR3 whole entry): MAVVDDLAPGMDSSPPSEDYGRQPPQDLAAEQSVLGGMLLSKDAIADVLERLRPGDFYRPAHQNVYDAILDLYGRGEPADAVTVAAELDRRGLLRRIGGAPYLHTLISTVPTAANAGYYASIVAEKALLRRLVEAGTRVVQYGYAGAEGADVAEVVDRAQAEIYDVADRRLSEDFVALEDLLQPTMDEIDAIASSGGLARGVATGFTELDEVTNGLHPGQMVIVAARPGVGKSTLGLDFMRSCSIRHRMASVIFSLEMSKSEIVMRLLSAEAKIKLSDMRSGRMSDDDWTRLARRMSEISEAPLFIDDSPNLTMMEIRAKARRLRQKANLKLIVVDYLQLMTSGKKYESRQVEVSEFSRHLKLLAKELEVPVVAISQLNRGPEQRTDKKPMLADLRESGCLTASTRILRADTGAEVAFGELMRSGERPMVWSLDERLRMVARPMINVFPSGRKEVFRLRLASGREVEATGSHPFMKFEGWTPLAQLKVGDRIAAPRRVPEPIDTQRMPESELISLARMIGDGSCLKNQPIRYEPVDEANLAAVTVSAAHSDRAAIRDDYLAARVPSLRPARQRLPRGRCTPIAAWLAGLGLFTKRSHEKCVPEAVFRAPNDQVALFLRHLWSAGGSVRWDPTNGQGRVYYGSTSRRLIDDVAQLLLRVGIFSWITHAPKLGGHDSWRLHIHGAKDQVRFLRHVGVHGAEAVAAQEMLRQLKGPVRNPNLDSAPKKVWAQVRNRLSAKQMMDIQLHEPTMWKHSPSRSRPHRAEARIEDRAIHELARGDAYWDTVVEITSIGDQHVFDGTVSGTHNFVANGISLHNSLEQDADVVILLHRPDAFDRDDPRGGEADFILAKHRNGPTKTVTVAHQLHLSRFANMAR
Briefly: DnaB intein splicing inhibitors, dose response, biochemical, cell-free fluorescence (AID 449749). In kind it is functional.

The target in the next data set is T3, Protein RecA (Mycobacterium tuberculosis, UniProt P9WHJ3).
T3 sequence (P9WHJ3 whole entry): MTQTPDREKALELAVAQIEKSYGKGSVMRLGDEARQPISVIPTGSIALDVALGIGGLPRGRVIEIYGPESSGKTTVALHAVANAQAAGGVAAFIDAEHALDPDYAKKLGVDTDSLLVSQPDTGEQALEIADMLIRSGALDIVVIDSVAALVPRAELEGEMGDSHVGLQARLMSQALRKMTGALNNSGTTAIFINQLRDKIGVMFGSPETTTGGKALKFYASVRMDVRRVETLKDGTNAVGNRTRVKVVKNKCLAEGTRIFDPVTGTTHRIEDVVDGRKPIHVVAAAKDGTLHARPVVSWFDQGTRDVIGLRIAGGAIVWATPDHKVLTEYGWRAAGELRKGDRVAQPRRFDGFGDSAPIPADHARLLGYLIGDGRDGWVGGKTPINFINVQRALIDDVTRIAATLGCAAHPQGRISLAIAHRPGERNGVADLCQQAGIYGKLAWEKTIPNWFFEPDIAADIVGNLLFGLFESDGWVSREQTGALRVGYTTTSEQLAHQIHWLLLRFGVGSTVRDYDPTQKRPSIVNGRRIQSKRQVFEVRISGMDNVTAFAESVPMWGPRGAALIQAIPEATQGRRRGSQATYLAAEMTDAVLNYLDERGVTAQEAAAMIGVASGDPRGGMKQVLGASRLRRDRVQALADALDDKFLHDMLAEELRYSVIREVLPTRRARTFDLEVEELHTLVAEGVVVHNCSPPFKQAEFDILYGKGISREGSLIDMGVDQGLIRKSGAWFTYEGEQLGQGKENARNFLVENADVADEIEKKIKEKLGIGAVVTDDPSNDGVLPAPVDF
Briefly: Fluorescence Cell-Free Homogeneous Dose Retest to Identify Inhibitors of RecA-Intein Splicing Activity. [Related pubchem assays (depositor defined):AID2097, AID2223, AID489010, AID492950]. The format is functional.

For another data set, the target named is Cytochrome P450 2C19 (Homo sapiens, UniProt P33261). Briefly: Cytochrome panel assay with activity outcomes. Panel member name: p450-cyp2c19 Compounds with AC50 equal or less than 10 uM are considered active. The format is functional.
A further data set addresses T4, Cytochrome P450 1A2 (Homo sapiens, UniProt P05177).
T4 sequence (P05177 whole entry): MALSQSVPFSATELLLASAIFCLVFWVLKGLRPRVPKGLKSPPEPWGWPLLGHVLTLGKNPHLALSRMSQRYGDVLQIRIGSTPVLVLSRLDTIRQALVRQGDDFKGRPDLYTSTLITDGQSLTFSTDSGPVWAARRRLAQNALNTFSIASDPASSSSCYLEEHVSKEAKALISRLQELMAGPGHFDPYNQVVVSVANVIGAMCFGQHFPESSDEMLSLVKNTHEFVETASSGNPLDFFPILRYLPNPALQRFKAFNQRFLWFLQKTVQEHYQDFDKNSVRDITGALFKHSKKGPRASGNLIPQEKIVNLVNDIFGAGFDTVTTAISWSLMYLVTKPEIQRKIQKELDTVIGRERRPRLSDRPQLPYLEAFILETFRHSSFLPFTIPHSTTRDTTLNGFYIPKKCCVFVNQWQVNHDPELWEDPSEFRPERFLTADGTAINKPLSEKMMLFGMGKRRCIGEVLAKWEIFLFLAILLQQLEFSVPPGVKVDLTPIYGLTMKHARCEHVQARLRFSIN

The target of another data set is Cytochrome P450 3A4 (Homo sapiens, UniProt P08684).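 Further: CYP3A4 tested as one member of a cytochrome P450 panel screen.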

Active and inactive are the calls of the source.

Cytochrome P450 2C19, sequence (P33261 whole entry): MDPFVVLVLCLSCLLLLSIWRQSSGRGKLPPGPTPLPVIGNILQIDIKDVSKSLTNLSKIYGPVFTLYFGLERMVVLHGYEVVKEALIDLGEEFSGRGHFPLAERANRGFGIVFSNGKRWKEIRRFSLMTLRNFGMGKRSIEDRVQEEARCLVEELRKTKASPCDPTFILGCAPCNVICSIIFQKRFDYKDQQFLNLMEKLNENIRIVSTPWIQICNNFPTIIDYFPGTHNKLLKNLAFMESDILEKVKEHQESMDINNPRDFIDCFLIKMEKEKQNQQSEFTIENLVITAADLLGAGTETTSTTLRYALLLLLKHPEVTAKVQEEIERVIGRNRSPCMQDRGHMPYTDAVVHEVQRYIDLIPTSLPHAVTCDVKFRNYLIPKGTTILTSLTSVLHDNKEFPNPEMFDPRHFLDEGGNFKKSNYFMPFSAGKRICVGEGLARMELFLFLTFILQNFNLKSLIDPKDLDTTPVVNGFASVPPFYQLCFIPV
Cytochrome P450 3A4, sequence (P08684 whole entry): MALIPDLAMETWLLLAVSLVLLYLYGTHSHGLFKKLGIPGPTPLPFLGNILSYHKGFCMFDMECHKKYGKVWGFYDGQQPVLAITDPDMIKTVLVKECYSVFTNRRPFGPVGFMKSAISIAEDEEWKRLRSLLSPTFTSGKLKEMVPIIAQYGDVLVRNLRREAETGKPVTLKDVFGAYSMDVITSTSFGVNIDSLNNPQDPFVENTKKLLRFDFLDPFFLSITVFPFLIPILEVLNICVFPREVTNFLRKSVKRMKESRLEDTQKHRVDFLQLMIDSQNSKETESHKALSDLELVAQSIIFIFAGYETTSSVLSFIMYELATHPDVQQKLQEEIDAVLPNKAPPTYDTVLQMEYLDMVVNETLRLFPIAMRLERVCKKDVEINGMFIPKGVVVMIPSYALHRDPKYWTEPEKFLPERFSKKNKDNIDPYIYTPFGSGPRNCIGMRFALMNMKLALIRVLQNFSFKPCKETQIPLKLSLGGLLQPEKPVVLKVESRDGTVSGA

On to `Cc1ccc(S(=O)(=O)N2CCN(S(C)(=O)=O)C2)cc1`, for which the EC50 in data set [1] is > 195 µM (not active).
As for `Fc1ccc(Oc2nc(-c3ccccc3)nnc2C(F)(F)F)cc1`, the AC50 in data set [2] is 2.95 µM (active). For the same compound, the EC50 at Protein RecA was 2.28 µM (active).
Consider `N[C@]1(C(=O)O)CCc2cc(P(=O)(O)O)ccc21`, for which the AC50 at Cytochrome P450 2C19 (read-out: AC50) was 15.8 µM (inconclusive); at Cytochrome P450 1A2 it was 39.8 µM (inconclusive).
Turning to `Cc1n[nH]c(O)c1C(c1cc2c(cc1Br)OCO2)c1c(C)n[nH]c1O`, the AC50 in data set [2] is 0.723 µM (active). On Protein RecA, the EC50 was 0.352 µM (active).
Regarding `O=C(Oc1ccc(OC(=O)c2ccco2)c(S(=O)(=O)c2ccc(Br)cc2)c1)c1ccco1`, the AC50 on Cytochrome P450 2C19 (read-out: AC50) is 1.41 µM (inconclusive); at Cytochrome P450 1A2, 2.24 µM (inconclusive); on Cytochrome P450 3A4, 5.62 µM (inconclusive).
For `COc1ccc(CNC(=O)CCCCCNC(=O)N2CCn3c2nc2ccccc23)cc1`, the EC50 in data set [1] is > 195 µM (not active).
On the same count and under the same terms, the figure for `O=C(O)CCCNC(=O)CCCNC(=O)C(c1ccccc1)c1ccccc1` is > 195 µM (not active).
With `N#C[C@H]1[C@H](c2ccccc2)[C@](C#N)(C(=O)c2ccccc2)[C@@H]2C=Cc3ccccc3N21`, in data set [2], the AC50 was > 380 µM (inactive). Also, at Protein RecA, the EC50 is 8.36 µM (active).
Turning to `O=C(c1cccs1)[C@@H]1[C@@H]2C(=O)N(Cc3ccc4c(c3)OCO4)C(=O)[C@@H]2C2c3ccccc3C=CN21` (some centres not stated), in data set [2], the AC50 is 4.09 µM (active). The EC50 on Protein RecA was 3.22 µM (active).
Consider `O=C(c1cc(F)c(F)cc1Cl)N1CCN(c2ccc([N+](=O)[O-])c3ncccc23)CC1`, for which, in data set [2], the AC50 was 3.47 µM (active). Further, on Protein RecA, the EC50 was 11.8 µM (active).
With `COc1ccc(-c2cc(C(=O)NCc3cccnc3)no2)cc1OC`, on Cytochrome P450 2C19 (read-out: AC50), the AC50 was 28.2 µM (inconclusive).
On to `CCOc1cc(/C=C2\C(=O)N(CCC#N)N=C2C)ccc1OCC(N)=O`, for which, in data set [2], the AC50 is 6.01 µM (active). For the same compound, the EC50 on Protein RecA was 3.61 µM (active).
In the case of `N#CCCn1c(=O)c(CCc2ccccc2)nc2cnc(OCc3ccccc3)nc21`, the AC50 on Cytochrome P450 2C19 (read-out: AC50) is 39.8 µM (inconclusive); on Cytochrome P450 1A2, 12.6 µM (inconclusive); at Cytochrome P450 3A4 it was 0.2 µM (inconclusive).
Consider `Cc1ccc(Cn2c(C3CCCN3c3nc(C)cs3)nc3cc(C(F)(F)F)ccc32)cc1` (configuration not stated), for which, in data set [1], the EC50 is > 195 µM (not active).
With `N#C/C(=N\O)c1nc(-c2ccccc2)cs1`, the results for the AC50 on Cytochrome P450 2C19 (read-out: AC50) and on Cytochrome P450 3A4 were 39.8 µM (inconclusive) and 15.8 µM (inconclusive), respectively.
For `CCOc1cc(/C=N/NC(=O)CN2CCCCC2)ccc1OCc1ccccc1`, at Cytochrome P450 2C19 (read-out: AC50), the AC50 was 25.1 µM (inconclusive).
Regarding `O=C(CSC(=S)N1CCOCC1)Nc1nc(-c2ccccc2)c(-c2ccccc2)o1`, the EC50 in data set [1] is on record as > 195 µM (not active).
For `COC1(OC)N=C(NC(=O)Nc2ccccc2)C2(C#N)C(c3ccccc3)C12C#N` (configuration not stated), the AC50 was 5.01 µM (inconclusive) at Cytochrome P450 2C19 (read-out: AC50) and 39.8 µM (inconclusive) at Cytochrome P450 1A2.
Consider `CC(=O)c1c(N2CCC(C(N)=O)CC2)nc(=S)n(-c2ccccc2)c1C`, for which the AC50 on Cytochrome P450 2C19 (read-out: AC50) is 31.6 µM (inconclusive).
For the compound `COC(=O)c1cc(NC(=O)Nc2ccccc2OC)cc(C(=O)OC)c1`, on Protein RecA, the EC50 is > 380 µM (inactive).
Turning to `O=C(CN1C(=O)c2ccccc2S1(=O)=O)NCc1cccs1`, the EC50 in data set [1] was > 195 µM (not active).
With `O=C(c1ccco1)N1CCN=C1SCc1ccccc1F`, the EC50 in data set [1] is on record as > 195 µM (not active).
Take `O=C(NC(=S)NC1C2CC3CC(C2)CC1C3)c1ccccc1` (configuration not stated): in data set [1], the EC50 is listed as > 195 µM (not active).
Turning to `O=C(O)c1cccc2cc(-c3ccccc3)oc(=O)c12`, in data set [1], the 50% effective concentration (EC50) is given as > 195 µM (not active).
For `COc1ccc(-c2nc(CSCC(=O)NCC3CCCO3)c(C)o2)cc1OC` (configuration not stated), the results for the AC50 on Cytochrome P450 2C19 (read-out: AC50) and on Cytochrome P450 3A4 were 31.6 µM (inconclusive) and 39.8 µM (inconclusive), respectively.
Take `O=C(O)c1cccc(Cn2c(Cl)c(/C=N/Nc3ccccc3)sc2=O)c1`: the AC50 in data set [2] is > 380 µM (inactive). The EC50 on Protein RecA was > 380 µM (inactive).
With `Cc1ccc(SC(C)C(=O)NCc2cccnc2)cc1` (configuration not stated), the AC50 at Cytochrome P450 2C19 (read-out: AC50) was 7.08 µM (inconclusive); on Cytochrome P450 3A4, 1 µM (inconclusive).
On to `COc1ccc(-c2noc(CCC(=O)Nc3ccc(C)c(C)c3)n2)cc1`, for which, in data set [1], the EC50 was > 195 µM (not active).
`Cc1ccc2c(c1)c1c(n2CC(O)CN2CCOCC2)CCCC1` (configuration not stated): the EC50 in data set [1] was > 195 µM (not active).
Turning to `CCOC(=O)CSc1nc(C)cc(Oc2ccc(=O)n(C)n2)n1`, the EC50 in data set [1] is 28.1 µM (active).
For the compound `CCSc1c([N+](=O)[O-])c(=O)n(-c2ccccc2)c2ccccc12`, in data set [2], the AC50 was 3.94 µM (active). In addition, on Protein RecA, the concentration giving a half-maximal response (EC50) is 155 µM (active).
Take `CCOC(=O)N1CCN(C(=O)c2ccc(CS(=O)(=O)c3c(Cl)cccc3Cl)o2)CC1`: the EC50 in data set [1] is > 195 µM (not active).
For the compound `Cn1cc(-c2nc3cnc(N4CCOCC4)nc3n(C3CC3)c2=O)c2ccccc21`, the AC50 result at Cytochrome P450 2C19 was “inconclusive”; at Cytochrome P450 1A2, 3.16 µM (inconclusive); at Cytochrome P450 3A4, 7.94 µM (inconclusive).
For the compound `O=C1C(Cl)=C(N2CCCCCC2)C(=O)N1c1ccccc1`, the AC50 in data set [2] is > 380 µM (inactive). Besides, the EC50 on Protein RecA is 10.3 µM (active).
In the case of `COc1cc(/C=N/NC(=O)c2ccc(F)cc2)ccc1OC(=O)c1ccco1`, the AC50 in data set [2] is 24 µM (active). Further, the EC50 at Protein RecA was 20 µM (active).
`CCCC[C@@H](CNC)NC[C@H](Cc1ccc(O)cc1)NCCc1ccc(OCC)cc1`: in data set [1], the concentration giving a half-maximal response (EC50) was > 195 µM (not active).
